# Measured values published in US4939133A, “N-substituted-2-hydroxy-α-oxo-benzeneacetamides and pharmaceutical compositions having activity as modulators of the arachidonic acid cascade” (Warner-Lambert Company, priority 1985, dated 1990).
# Several values for one entry are separate records, joined by “and”; a condition that tells them apart may be missing. Equal values may be shown once.
# Test system: Human Leukocyte Lipoxygenase
# Assay: Human Leukocyte Lipoxygenase Assay (LDA-H / LDAH)
# Type: biochemical
# Conditions: 2.50 E -5 M
# Protocol: Human Leukocyte Lipoxygenase Assay (LDA-H)
# Whole blood is collected from normal volunteers and spun in a refrigerated centrifuge for four minutes at 1°-6° C. at 3800 g. The buffy coat is manually separated and washed twice with chilled 0.83% NH4 Cl and centrifuged at 1000 RPM for ten minutes at 4° C. The white cell is suspended in culture media-EMEM supplemented with 6% Agamma human serum, tricine buffer, and neomycin and recentrifuged at 1000 g to yield a pellet containing the leukocytes used for the preparation of the acetone pentane powder.
# The acetone-pentane powder is prepared utilizing a modification of the procedure reported for human platelet lipoxygenase. See Siegel, et al, Arachidonate Metabolism via Lipoxygenase and 12-L-hydroperoxy-5-Eicostetraenoic acid Peroxidase Sensitive to Antiinflammatory Drugs, Proc. Natl. Acad. Sci., USA 77:308, 1980 and D. P. Wallach and V. R. Brown, a novel Preparation of Human Platlet Lipoxygenase, Biochem. Biophys. Acta. 663:361, 1981. Buffy coat prepared above is resuspended in 5-7 volumes of cold 0.1M Tris buffer, pH 7.4 containing 0.154M NaCl. The suspension is centrifuged at 13,300 g for ten minutes at 4° C. The resultant pellet was retained, resuspended in five volumes of cold acetone, recentrifuged at 13,300 g and resuspended in five volumes of cold pentane. The pentane suspension is centrifuged for ten minutes at 13,300 g to give a pellet which is dried in the cold under vacuum with periodic pulverization. The dry powder is stable for several weeks when stored at -88° C.
# Enzyme stock solution is prepared in the following manner. About 15 mg of the acetone-pentane powder sis suspended in 4 ml of cold tris buffer (0.1M, pH 7.4), allowed to stand for five minutes, and homogenized thorougly. The homogenate is sonicated three times for 15 seconds each time, diluted to 7 ml with cold tris buffer (0.1M, pH 7.4), and centrifuged at 4° C. for 60 minutes at 13,300 g. The supernatent is retained and diluted to a total of 10 ml with cold tris buffer (0.1M, pH 7.4) to give the stck enzyme solution. Additional dilutions of 2-50 fold are done as necessary to locate optimal enzyme reaction rate in the assay described below.
# Substrate solution is prepared at 100 μM or 1.0 μM concentrations of arachidonic acid or linoleic acid in 0.1M tris buffer, pH 9.0 containing 20% ethanol.
# The enzyme reaction is followed spectrophotometrically by the appearance of a conjugated diene product at 234 nm. The reaction is monitored at 24° C. using a Gilford Model 2600 spectrophotometer. […] The effects of inhibitors on the reaction are compared with control reactions run under indentical conditions. Routinely, each compounds of the present invention is incubated with the enzyme for five minutes prior to addition of substrate to initiate the reaction. Inhibition expressed as IC50 as molar concentration of the compound required to reduce reaction rate to 50% control.
row,% Inhibition (LDAH) [%],SMILES
1,0.0,O=C(Nc1ccc(CCc2ccc(Cl)c(Cl)c2)cc1)c1ccc(Cl)cc1O [Example 36]
2,0.0,"COc1ccc(CCc2ccc(NC(=O)c3ccccc3O)cc2)cc1OC [Example 48, N-[4-[2-(3,4-dimethoxyphenyl)ethyl]phenyl]-2-hydroxybenzamide]"
3,0.0,COc1ccc(CCc2ccc(NC(=O)c3cc4ccccc4cc3O)cc2)cc1OC [Example 38]
4,0.0,CCCCCCCCCCc1ccc(NC(=O)c2ccccc2O)cc1 [Example 13]
5,0.0,CCCCCCCCCCc1ccc(NC(=O)c2cc(Br)ccc2O)cc1 [Example 12]
6,0.0,"O=C(Nc1ccc(CCc2ccc(O)c(O)c2)cc1)c1ccccc1O [Example 47, Benzamide, N-[4-[2-(3,4-dihydroxyphenyl)ethyl]phenyl]-2-hydroxy]"
7,0.0,"CCCCCCCCCCc1ccc(NC(=O)c2cc3ccccc3cc2O)cc1 [Example 49, 2-Naphthalenecarboxamide, N-(4-decylphenyl)-3-hydroxy]"

# Same assay, conditions: 8.00 E -5 M
row,% Inhibition (LDAH) [%],SMILES
1,0.0,CCCCCCCCCCc1ccc(NC(=O)c2c(O)cccc2O)cc1 [Example 25]

# Same assay, conditions: 50% reduction of reaction rate vs control, E -number means X 10^-no.
row,IC50 [µM],SMILES
1,0.68,CCCCCCCCCCc1ccc(NC(=O)c2cccc(C)c2O)cc1 [Example 22]
2,24,COc1cc(CCc2ccc(NC(=O)c3ccc(C)cc3O)cc2)ccc1O [Example 26]
3,0.28,"COc1ccc(CCc2ccc(NC(=O)C(=O)c3cccc(C(C)(C)C)c3O)cc2)cc1OC [Example 54, N-[4-[2-(3,4-dimethoxyphenyl)ethyl]phenyl]-3-(1,1-dimethylethyl)-2-hydroxy-α-oxo-benzeneacetamide]"
4,17,"O=C(Nc1ccc(CCc2ccc(O)c(O)c2)cc1)C(=O)c1ccccc1O [Example 53, N-[4-[2-(3,4-dihydroxyphenyl)ethyl]-phenyl]-2-hydroxy-α-oxo-benzeneacetamide]"
5,120,"COc1ccc(CCc2ccc(NC(=O)C(=O)c3cccc(Cl)c3O)cc2)cc1OC [Example 60, 3-chloro-N-[4-[2-(3,4-dimethoxyphenyl)ethy]-phenyl]-2-hydroxy-α-oxo-benzenacetamide]"
6,4.1,COc1ccc(CCc2ccc(NC(=O)c3cccc(Cl)c3O)cc2)cc1OC [Example 23]
7,3.9,"CC(C)(C)c1cccc(C(=O)C(=O)Nc2ccc(CCc3ccc(O)c(O)c3)cc2)c1O [Example 55, N-[4-[2-(3,4-dihydroxyphenyl)ethyl]phenyl]-3-(1,1-dimethylethyl)-2-hydroxy-α-oxobenzenacetamide]"
8,0.184,"COc1ccc(CCc2ccc(NC(=O)C(=O)c3ccccc3O)cc2)cc1OC [Example 52, N-[4-(2-(3,4-dimethoxyphenyl)ethyl)phenyl]-2-hydroxy-α-oxo-Benzeneacetamide]"
9,2.8,CCCCCCCCCCc1ccc(NC(=O)c2ccc(Cl)cc2O)cc1 [Example 7]

# Target: T1, human leukocyte 5-lipoxygenase (Homo sapiens, UniProt P09917)
# T1 construct: endogenous in cells; host or cells: leukocytes from fresh blood of normal adult men
# T1 sequence (P09917 1-674): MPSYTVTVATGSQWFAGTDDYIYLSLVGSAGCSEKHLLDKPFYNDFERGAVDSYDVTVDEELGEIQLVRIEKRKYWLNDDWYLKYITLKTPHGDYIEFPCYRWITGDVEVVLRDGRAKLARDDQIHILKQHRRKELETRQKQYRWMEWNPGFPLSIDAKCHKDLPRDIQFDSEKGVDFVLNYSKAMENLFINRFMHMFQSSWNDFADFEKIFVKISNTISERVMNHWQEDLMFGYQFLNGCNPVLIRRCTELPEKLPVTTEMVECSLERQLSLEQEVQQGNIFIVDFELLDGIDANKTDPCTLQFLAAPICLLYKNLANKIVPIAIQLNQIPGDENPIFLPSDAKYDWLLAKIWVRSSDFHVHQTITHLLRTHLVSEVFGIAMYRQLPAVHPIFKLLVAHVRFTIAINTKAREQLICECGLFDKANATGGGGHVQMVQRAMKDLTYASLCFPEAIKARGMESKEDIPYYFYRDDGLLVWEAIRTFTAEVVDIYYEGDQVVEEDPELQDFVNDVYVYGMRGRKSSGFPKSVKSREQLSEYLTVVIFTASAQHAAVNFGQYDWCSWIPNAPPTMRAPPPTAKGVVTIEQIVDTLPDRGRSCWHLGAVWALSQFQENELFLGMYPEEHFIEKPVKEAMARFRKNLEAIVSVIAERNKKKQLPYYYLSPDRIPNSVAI
# Assay: 5-Lipoxygenase inhibition in human leukocytes, 5-HETE formation (5LOA1, 5LOA in Table 6)
# Type: cell-based
# Conditions: 50% inhibition of 5-HETE formation, E -number means X 10^-no., read-out: IC50 (5LOA)
# Excerpt: To Evaluate the Effect of Each Compounds as a 5-Lipoxygenase Inhibitor in Comparison to Standard Reference Agents in Human Leukocytes (5LOAl)
# The purpose of this assay is to evaluate the activity of each compound as an inhibitor of human leukocyte 5-lipoxygenase.
# Arachidonic acid and calcium ionophore A23187 are obtained from Sigma (St. Louis, MO). Silica gel plates, GF are obtained from Analtech (Newark, DE). Arachidonic acid, (1-^14 C) and 5-HETE (^3 H), 5-(S)-hydroxy-6-trans, 8,11,14-cis eicosatetraenoic acid, are obtained from New England Nuclear (Boston, MA). Six percent Dextran-70 in 0.9% NaCl is obtained from Cuffer Labs (Berkeley, CA).
# Preparation of Leukocytes
# Fresh blood from normal adult men who had not received any drugs for at least the previous five days is obtained by the Community Research Clinic (WL/PD) using venipuncture and collected into heparinized vacuotainer tubes. To every 100 ml of pooled blood is added 25 ml of dextran solution (6% dextran -70 in 0.9% sodium chloride containing 3% dextrose) and this is mixed gently in a plastic cylinder. The mixture is left to stand at room temperature for at least 90 minutes. The upper layer which is rich in leukocytes and platelets is then carefully decanted into 50 ml plastic tubes and centrifuged at about 100×g for eight minutes in and IEC centrifuge and rotor number 269 (about 600 rpm). The supernatant fluid is discarded and the pellet is resuspended in 10 ml of 0.87% ammonium chloride for exactly two minutes. This procedure is to lyse completely contaminating red blood cells. Leukocytes are then separated by centrifugation for ten minutes. The pellet is washed three times by suspension in 20 ml PBS (sodium chloride, 7.1 g; Na2 HPO4, 1.15 g; KH2 PO4,0.2 g, and KCl, 0.2 g/L) and centrifuged as before. The final pellet is suspended in PBS containing 0.87 mM CaCl2. Viability of the cells is then checked using trypan blue exclusion method and is found to be over 90%.
# 5-Lipoxygenase Enzyme Assay
# Leukocyte cells in suspension (0.98 ml) are incubated with or without test compounds for five minutes at 37° C. in a shaking water bath. At this time a […] mixture is perpared per 1 ml of cell suspension: 100 mM arachidonic acid, 1 μl, 0.05 μCi ^14 C-arachidonic acid in 5 μl; 1 mM calcium ionophore A23187, 10 μl (1). This mixture is added and the incubation continued for five minutes. The reaction is stopped by adding four volumes of absolute ethanol and the mixture is kept in ice for 30 minutes. The floculated precipitate is separated by centrifugation at about 37,000×g for 20 minutes (Beckman Instruments rotor number 40). The alcohol extract is taken to dryness under a stream of nitrogen and the residue is dissolved in 100-200 μl absolute ethanol. At the time any turbidity is removed by centrifugation. An aliquot (25-50 μl) is applied onto 20×20 cm silica gel TLC plate and developed using the following solvent system: diethyl ether, petroleum ether (2040°C.),acetic acid (50:50: 1 v/v). Zones of 1 cm apart are scraped from the TLC plate and transferred to mini-vials. Methanol (0.5 ml) is added to dissolve the radioactivity adsorbed to the silica gel and scintillation fluid (H. P., Beckman), 5 ml is then added and vials are counted in a liquid scintillation counter. A sample of ^3 H-5-HETE is applied and used for the identification of the formed 5-HETE. Total radioactivity in the test as well as the control samples are normalized and the amount of 5-HETE present is calculated accordingly.
# IC50 values are defined as the concentrations of test agents which caused a 50% inhibition of the formation of 5-HETE as compared to control and are determined by inspection of the concentration-response curves.
row,IC50,SMILES
1,5.3 µM,Cc1ccc(C(=O)N(C)c2ccc(CCc3ccc(O)c(O)c3)cc2)c(O)c1 [Example 43]
2,4.2 µM and 3.5 µM,"COc1ccc(CCc2ccc(NC(=O)c3ccccc3O)cc2)cc1OC [Example 48, N-[4-[2-(3,4-dimethoxyphenyl)ethyl]phenyl]-2-hydroxybenzamide]"
3,3.38 µM,"O=C(Nc1ccc(CCc2ccc(O)c(O)c2)cc1)C(=O)c1ccccc1O [Example 53, N-[4-[2-(3,4-dihydroxyphenyl)ethyl]-phenyl]-2-hydroxy-α-oxo-benzeneacetamide]"
4,7.1 µM,"COc1ccc(C(=O)Nc2ccc(CCc3ccc(O)c(O)c3)cc2)c(O)c1 [Example 8, N-[4-[2-(3,4-Dihydroxyphenyl)ethyl]phenyl]-2-hydroxy-4-methoxybenzamide]"
5,39.2 µM,O=C(Nc1ccc(CCc2ccc(Cl)c(Cl)c2)cc1)c1cccc(Cl)c1O [Example 34]
6,7.1 µM and 8.17 µM,"CC(C)(C)c1cccc(C(=O)C(=O)Nc2ccc(CCc3ccc(O)c(O)c3)cc2)c1O [Example 55, N-[4-[2-(3,4-dihydroxyphenyl)ethyl]phenyl]-3-(1,1-dimethylethyl)-2-hydroxy-α-oxobenzenacetamide]"
7,5 µM,"COc1ccc(CCc2ccc(NC(=O)C(=O)c3ccccc3O)cc2)cc1OC [Example 52, N-[4-(2-(3,4-dimethoxyphenyl)ethyl)phenyl]-2-hydroxy-α-oxo-Benzeneacetamide]"
8,11.1 µM,"COc1ccc(CCc2ccc(N(C)C(=O)C(=O)c3ccccc3O)cc2)cc1OC [Example 51, N-Methyl-N-[4-(2-(3,4-dimethoxyphenyl)ethyl)phenyl]-2-hydroxy-α-oxo-benzeneacetamide]"

# Same assay, conditions: IC50 (5LOA), 50% inhibition of 5-HETE formation, E -number means X 10^-no.
row,SMILES,IC50 [µM]
1,"CCCCCCCCCCc1ccc(NC(=O)c2cc([N+](=O)[O-])ccc2O)cc1 [Example 21, N-(4-n-decylphenyl)-2-hydroxy-5-nitro-benzamide]",20.8
